Laboratory results reported in patent publication US4237140A, “Analgesic mixture of nalbuphine and acetaminophen” (E. I. Du Pont de Nemours and Company, priority 1979, dated 1980).
Counter-ions that a name gives are not always drawn.

Tested on: phenyl-p-benzoquinone induced writhing in mice
Test: mouse antiphenylquinone writhing test (oral analgesic activity)
Conditions: for ED50: Mus musculus, po, 5 min; for peak time for analgesia: preliminary experiment, drug alone
Description: Male CF1 mice obtained from Charles River Breeding Laboratories, fasted for 16-22 hours, and weighing 18-22 g at the time of testing are used throughout. All mice are dosed orally with acetaminophen and/or nalbuphine (calculated as the hydrochloride salt) dissolved completely in distilled water containing as vehicle 2% by volume of Tween 80®, a pharmacological dispersant manufactured by Fisher Scientific Company and containing 100% polysorbate 80. A dosing volume of 20 ml/kg is used. All doses are coded and the test is performed under a code not known to the observer.
Mice, intubated with various doses of nalbuphine HCl, acetaminophen, combined doses of nalbuphine.HCl and acetaminophen, or vehicle, are injected intraperitoneally with a challenge dose of phenyl-p-benzoquinone.The phenyl-p-benzoquinone is prepared as a 0.1 mg/ml solution in 5% by volume of ethanol in water; the writhing dose is 1.25 mg/kg injected at the rate of 0.25 ml/20 g. For scoring purposes a "writhe" is indicated by whole body stretching or contraction of the abdomen: mice are observed 10 minutes for the presence or absence of writhing beginning 5 minutes after receiving the phenyl-p-benzoquinone dose. Each mouse is used only once, then discarded.
Initially the time of peak activity is determined separately for each drug in the antiphenylquinone writhing test. Then several doses of each drug alone and in precise nalbuphine.HCl/acetaminophen ratios are given orally at or near the time of peak analgesic effects.
All ED50 values are determined numerically by the moving average method of Thompson (W. F. Thompson: Bacteriological Rev. 11, 115-145, 1947) and 95% confidence limits are calculated according to the method of Litchfield and Wilcoxon (J. T. Litchfield, Jr. and F. Wilcoxon: J. Pharm. Exp. Ther. 96, 99-113, 1949).

| SMILES | ED50 | ED50 AT 5 MIN., Acetaminophen (Table 1, oral, acetaminophen component dose (alone or in combination), 95% confidence limits printed on adjacent line) | % MICE BLOCKED (oral, nalbuphine.HCl 0, acetaminophen 29.8 mg/kg) | % MICE BLOCKED (oral, nalbuphine.HCl 0, acetaminophen 59.5 mg/kg) | % MICE BLOCKED (oral, nalbuphine.HCl 0, acetaminophen 238 mg/kg) | peak time for analgesia (oral) | ED50 AT 5 MIN., Nalbuphine . HCl (Table 1, oral, nalbuphine.HCl component dose (alone or in combination), 95% confidence limits printed on adjacent line) | % MICE BLOCKED (oral, nalbuphine.HCl 1.9 mg/kg, acetaminophen 0) | % MICE BLOCKED (oral, nalbuphine.HCl 3.8 mg/kg, acetaminophen 0) | % MICE BLOCKED (oral, nalbuphine.HCl 7.6 mg/kg, acetaminophen 0) | % MICE BLOCKED (oral, nalbuphine.HCl 15.2 mg/kg, acetaminophen 0) | % MICE BLOCKED (oral, nalbuphine.HCl 30.4 mg/kg, acetaminophen 0) |
| --- | --- | --- | --- | --- | --- | --- | --- | --- | --- | --- | --- | --- |
| CC(=O)Nc1ccc(O)cc1 [Acetaminophen, N-(4-hydroxyphenyl)acetamide] | 119 mg/kg | 151 mg/kg | 20% | 23% | 55% | 5 min |  |  |  |  |  |  |
| Oc1ccc2c3c1O[C@H]1[C@@H](O)CC[C@@]4(O)[C@@H](C2)N(CC2CCC2)CC[C@]314 [Nalbuphine . HCl, (-)-17-(cyclobutylmethyl)-4,5α-epoxymorphinan-3,6α, 14-triol] | 7.6 mg/kg |  |  |  |  | 5 min | 8.58 mg/kg | 10% | 23% | 50% | 63% | 90% |
